The values below come from publication PMC10941260 (RSC Advances, 2024).

Where two headings read alike, the source gives them in different places.

In assay [1] the target is T1, AChE (Electrophorus electricus, UniProt O42275). Put plainly: Cholinesterase inhibition assay. It counts as biochemical, electric eels. The note with it: for fold decrease in potency against AChE: compared to the most potent compound (a11).
For assay [2], the target named is T2, BChE (Equus caballus, UniProt P81908). The assay is described as follows: Cholinesterase inhibition assay. It counts as biochemical, horse. The note with it: for fold decrease in activity against BChE: compared to the di-methoxy substituted compound, printed as (a5).
T2 sequence (P81908 whole entry): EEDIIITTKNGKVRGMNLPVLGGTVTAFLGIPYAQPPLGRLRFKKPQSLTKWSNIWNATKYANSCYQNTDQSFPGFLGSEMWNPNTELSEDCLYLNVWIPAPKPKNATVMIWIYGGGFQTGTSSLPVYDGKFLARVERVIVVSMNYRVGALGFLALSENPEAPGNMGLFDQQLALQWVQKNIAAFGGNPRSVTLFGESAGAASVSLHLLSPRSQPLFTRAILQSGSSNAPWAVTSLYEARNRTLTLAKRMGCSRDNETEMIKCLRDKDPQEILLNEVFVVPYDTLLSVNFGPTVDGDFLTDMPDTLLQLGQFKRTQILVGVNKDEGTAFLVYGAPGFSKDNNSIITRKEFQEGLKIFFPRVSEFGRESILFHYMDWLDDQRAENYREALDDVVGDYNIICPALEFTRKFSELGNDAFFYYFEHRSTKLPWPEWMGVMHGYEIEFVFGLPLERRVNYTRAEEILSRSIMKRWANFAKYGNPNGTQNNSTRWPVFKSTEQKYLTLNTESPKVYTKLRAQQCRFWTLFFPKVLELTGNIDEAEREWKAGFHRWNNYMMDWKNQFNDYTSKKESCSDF
The target in assay [3] is T2, BChE. The assay is described as follows: Enzyme kinetic study. It counts as biochemical. The conditions noted are these: Lineweaver-Burk plot, substrate BTCII.
Assay [4] concerns the target T3, MAO-A (Mus musculus, UniProt Q64133).
T3 sequence (Q64133 1-526): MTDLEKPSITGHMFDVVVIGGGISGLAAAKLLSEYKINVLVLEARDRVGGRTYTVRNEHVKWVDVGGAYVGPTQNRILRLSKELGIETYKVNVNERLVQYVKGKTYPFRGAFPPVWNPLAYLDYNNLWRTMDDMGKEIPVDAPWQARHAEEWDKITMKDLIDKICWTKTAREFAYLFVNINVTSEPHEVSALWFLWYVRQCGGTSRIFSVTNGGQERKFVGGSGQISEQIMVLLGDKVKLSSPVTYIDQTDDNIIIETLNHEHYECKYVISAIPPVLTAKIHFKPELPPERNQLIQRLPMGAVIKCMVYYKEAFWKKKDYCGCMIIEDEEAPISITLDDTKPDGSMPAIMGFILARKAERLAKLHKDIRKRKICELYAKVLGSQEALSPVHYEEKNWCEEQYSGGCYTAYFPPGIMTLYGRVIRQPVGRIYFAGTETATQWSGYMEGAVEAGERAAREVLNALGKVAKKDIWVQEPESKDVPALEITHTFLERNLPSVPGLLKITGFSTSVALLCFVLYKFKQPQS
The assay is described as follows: Monoamine oxidase A inhibition assay. The note with it: compared to (a3). Type of assay: biochemical, Mice.

Assay [5] deals with MAO-B. Put plainly: Enzyme kinetic study. Type of assay: biochemical. The note with it: Lineweaver-Burk plot, substrate p-tyramine.
Assay [6] has as its target T4, MAO-B (Mus musculus, UniProt Q8BW75).
T4 sequence (Q8BW75 2-520): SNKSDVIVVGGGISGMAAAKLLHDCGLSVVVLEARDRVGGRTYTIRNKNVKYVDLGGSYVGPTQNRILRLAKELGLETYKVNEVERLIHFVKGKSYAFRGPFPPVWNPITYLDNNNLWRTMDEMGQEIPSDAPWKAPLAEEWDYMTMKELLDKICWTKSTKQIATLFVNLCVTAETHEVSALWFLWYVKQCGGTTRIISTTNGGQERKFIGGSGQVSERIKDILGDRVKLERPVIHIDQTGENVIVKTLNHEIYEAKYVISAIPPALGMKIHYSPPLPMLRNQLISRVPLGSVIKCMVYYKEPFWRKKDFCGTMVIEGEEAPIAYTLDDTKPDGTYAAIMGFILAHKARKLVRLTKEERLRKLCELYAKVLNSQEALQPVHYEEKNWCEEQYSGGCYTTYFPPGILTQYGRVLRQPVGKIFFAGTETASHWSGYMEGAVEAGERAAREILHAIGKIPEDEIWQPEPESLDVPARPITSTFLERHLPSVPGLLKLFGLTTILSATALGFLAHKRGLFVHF
Put plainly: Monoamine oxidase B inhibition assay. The note with it: compared to the most potent compound (a12). It counts as biochemical, Mice.

The subject of assay [7] is MAO-A. Put plainly: Enzyme kinetic study. It counts as biochemical. The note with it: Lineweaver-Burk plot, substrate p-tyramine.
For assay [8], the target named is T1, AChE. The assay is described as follows: Enzyme kinetic study. Type of assay: biochemical. The conditions noted are these: Lineweaver-Burk plot, substrate ATCII.
The mark [9] stands for this setting: read-out: IC50 BChE, N/A = Not active (footnote b).

T1 sequence (O42275 24-633): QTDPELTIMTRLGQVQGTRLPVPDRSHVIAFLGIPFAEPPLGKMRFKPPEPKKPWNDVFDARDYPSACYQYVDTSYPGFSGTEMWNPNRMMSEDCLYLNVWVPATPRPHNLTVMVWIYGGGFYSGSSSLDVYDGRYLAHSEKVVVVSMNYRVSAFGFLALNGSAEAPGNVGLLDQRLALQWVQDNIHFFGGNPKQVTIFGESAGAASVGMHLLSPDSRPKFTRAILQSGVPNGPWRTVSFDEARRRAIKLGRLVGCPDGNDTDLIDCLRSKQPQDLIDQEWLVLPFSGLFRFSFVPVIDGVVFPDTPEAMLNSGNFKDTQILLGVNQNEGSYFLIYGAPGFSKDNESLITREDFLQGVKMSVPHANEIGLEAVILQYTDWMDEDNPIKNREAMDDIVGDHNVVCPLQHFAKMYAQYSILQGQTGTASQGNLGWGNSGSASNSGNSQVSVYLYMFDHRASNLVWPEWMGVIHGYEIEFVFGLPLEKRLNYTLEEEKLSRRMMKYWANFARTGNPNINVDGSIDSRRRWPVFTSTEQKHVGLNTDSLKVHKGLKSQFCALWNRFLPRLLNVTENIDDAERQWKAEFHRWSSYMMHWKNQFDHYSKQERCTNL

The IC50 is the midpoint of a concentration-inhibition curve. For the compound “N-(3,4-Dimethoxybenzyl)quinoline-8-sulfonamide [a6]”, at AChE [1], the “fold decrease in potency against AChE” value is 2 fold. The IC50 at AChE [1] (read-out: IC50 AChE) stood at 1110 ± 470 nM; at BChE [2] (setting [9]), 1100 ± 890 nM. Moreover, at BChE [3], the “mode of inhibition toward BChE” value is on record as “competitive inhibition”.
As for `O=S(=O)(Nc1ccc(I)cc1)c1cccc2cccnc12` [a8, N-(4-Iodophenyl)quinoline-8-sulfonamide], at AChE [1], the IC50 worked out at 1150 ± 720 nM and the “fold decrease in potency against AChE” value is on record as approximately 2 fold.
Consider “N-(4-Florobenzyl)-8-quinolinesulfonamide [a12]”, for which the “fold decrease in activity against MAO-A” value at MAO-A [4] turned out to be 2 fold. The IC50 on AChE [1] (read-out: IC50 AChE) was 2650 ± 970 nM; on BChE [2] (setting [9]), 1160 ± 770 nM. Also, in the assay with MAO-B [5], the “mode of inhibition toward MAO-B” value is reported as “competitive inhibition”.
Regarding “N-(2,3-Dihydro-1H-benzo[d]imidazole-2-yl)quinoline-8-sulfonamide [a7]”, the “fold reduction in potency against MAO-B” value at MAO-B [6] is 2 fold. Further, the IC50 at AChE [1] (read-out: IC50 AChE) was 1730 ± 870 nM.
On to `Cc1ccc(F)c(CNS(=O)(=O)c2cccc3cccnc23)c1` [a2, N-(2-Fluoro-5-methylphenzyl)quinoline-8-sulfonamide], for which the “fold decrease in activity against MAO-A” value at MAO-A [4] was 4 fold. In addition, the “fold reduction in potency against MAO-B” value at MAO-B [6] was 4 fold. In addition, the “fold decrease in potency against AChE” value on AChE [1] is listed as approximately 3 fold. Besides, the IC50 on AChE [1] (read-out: IC50 AChE) worked out at 2580 ± 970 nM.
In the case of `COc1ccc(CNS(=O)(=O)c2cccc3cccnc23)cc1` [a18, N-(4-Methoxybenzyl)-8-quinolinesulfonamide], at AChE [1], the IC50 is 1010 ± 610 nM and the “fold decrease in potency against AChE” value is 2 fold. At BChE [2], the half-maximal inhibitory concentration (IC50) was found to be 2780 ± 920 nM and the “fold decrease in activity against BChE” value was found to be 2 fold.
For “N-(2-Fluorobenzyl)quinoline-8-sulfonamide [a13]”, at MAO-A [4], the “fold decrease in activity against MAO-A” value worked out at 2 fold. For the same compound, the “fold reduction in potency against MAO-B” value at MAO-B [6] turned out to be 3 fold. Besides, the “fold decrease in potency against AChE” value on AChE [1] turned out to be 3 fold. Also, the IC50 on AChE [1] (read-out: IC50 AChE) is 1650 ± 970 nM.
As to `O=S(=O)(NCc1cccc(Cl)c1)c1cccc2cccnc12` [a5, N-(3-Chlorobenzyl)quinoline-8-sulfonamide], at AChE [1], the IC50 came out at 1950 ± 1070 nM and the “fold decrease in potency against AChE” value is on record as approximately 4 fold. Moreover, at BChE [2], inhibition was half-maximal at 2840 ± 1070 nM (IC50) and the “fold decrease in activity against BChE” value is listed as approximately 2 fold. Further, the “mode of inhibition toward MAO-A” value with MAO-A [7] is “competitive inhibition”.
Take `O=S(=O)(NCc1cc(F)cc(C(F)(F)F)c1)c1cccc2cccnc12` [a14, N-(3-Fluoro-5-(trifluoromethyl)benzyl)quinoline-8-sulfonamide]: the IC50 at AChE [1] (read-out: IC50 AChE) came out at 3060 ± 770 nM; on BChE [2] (setting [9]), 1180 ± 570 nM.
As to “N-(2,6-Difluorophenyl)quinoline-8-sulfonamide [a3]”, the “fold reduction in potency against MAO-B” value at MAO-B [6] was 4 fold. The “fold decrease in potency against AChE” value at AChE [1] is reported as approximately 3 fold. Further, on AChE [1] (read-out: IC50 AChE), the IC50 is 1010 ± 590 nM.
On to `O=S(=O)(NCc1ccc(Cl)cc1Cl)c1cccc2cccnc12` [a15, N-(2,4-Dichlorobenzyl)-8-quinolinesulfonamide], for which, at AChE [1], the IC50 amounted to 1400 ± 540 nM and the “fold decrease in potency against AChE” value is listed as approximately 2.5 fold.
For “N-(2-Hydroxyphenyl)quinoline-8-sulfonamide [a11]”, the “fold reduction in potency against MAO-B” value on MAO-B [6] is reported as 2 fold. The IC50 at AChE [1] (read-out: IC50 AChE) stood at 580 ± 50 nM. In addition, the “mode of inhibition toward AChE” value at AChE [8] is given as “competitive inhibition”.
Regarding `O=S(=O)(NCc1ccccc1Cl)c1cccc2cccnc12` [a16, N-(2-Chlorobenzyl)-8-quinolinesulfonamide], on AChE [1], the IC50 is 1920 ± 870 nM and the “fold decrease in potency against AChE” value was approximately 4 fold.
The matching figures for `N#Cc1ccc(NS(=O)(=O)c2cccc3cccnc23)cc1` [a9, N-(4-Cyanophenyl)quinoline-8-sulfonamide]: 3780 ± 920 nM and 7 fold.
The compound `O=S(=O)(NCC1CCCCC1)c1cccc2cccnc12` [a10, N-(Cyclohexylmethyl)quinoline-8-sulfonamide] had an IC50 against AChE [1] of 1360 ± 770 nM.
As to `O=S(=O)(NCc1ccc(Cl)cc1)c1cccc2cccnc12` [a4, N-(4-Chlorobenzyl)quinoline-8-sulfonamide], at AChE [1], inhibition was half-maximal at 2180 ± 1170 nM (IC50) and the “fold decrease in potency against AChE” value was approximately 4 fold.
In the case of `O=S(=O)(Nc1cccc(I)c1)c1cccc2cccnc12` [a1, N-(3-Iodophenyl)quinoline-8-sulfonamide], at AChE [1], the IC50 was found to be 1110 ± 570 nM and the “fold decrease in potency against AChE” value is given as approximately 2 fold.
